Reference: patent US20230096766A1, “AMINO ACID HAVING FUNCTIONAL GROUP CAPABLE OF INTERMOLECULAR HYDROGEN BONDING, PEPTIDE COMPOUND CONTAINING SAME AND METHOD FOR PRODUCTION THEREOF” (Chugai Seiyaku Kabushiki Kaisha, priority 2018, published 2023)
*1 amine or outer side, *2 acyl side, *3 side chain or, on linkers, in order; H or OH if unused. Where a SMILES comes first, the peptide text is derived from it. Bridges are numbered along the chain shown (N, C = ends). [ ]: non-standard residue; d: D form. The star is where a group is joined. ξ: configuration not given here. hPhe(3-OMe,4-CONHMe) = CNC(=O)c1ccc(CC[C@H](N)C(=O)O)cc1OC; X11 = CNC(=O)c1ccc(CCN(CC(=O)[*:2])[*:1])cc1OC; NMePhe(3-Cl) = CN[C@@H](Cc1cccc(Cl)c1)C(=O)O; ξGln(SO2Me) = CS(=O)(=O)NC(=O)CCC(N)C(=O)O; Tyr(3-F) = N[C@@H](Cc1ccc(O)c(F)c1)C(=O)O; Tyr(3-OMe) = COc1cc(C[C@H](N)C(=O)O)ccc1O; NMehPhe = CN[C@@H](CCc1ccccc1)C(=O)O; X7 = O=C(C[C@H](COCCO)N[*:1])[*:2]; NMeF = CN[C@@H](Cc1ccccc1)C(=O)O; NMeGABA = CN(CCCC(=O)[*:2])[*:1]; Butyl(3-Me,3-OH) = CC(C)(O)CC*; CH2CH(OH)CF3 = OC(C*)C(F)(F)F; NMeL = CN[C@@H](CC(C)C)C(=O)O; Thr(3ξ) = CC(O)[C@H](N)C(=O)O; Butyl(3R-OH) = C[C@@H](O)CC*; ξNMeF = CNC(Cc1ccccc1)C(=O)O; NMeV = CN[C@H](C(=O)O)C(C)C; NMeAbu = CC[C@H](NC)C(=O)O; NMeA = CN[C@@H](C)C(=O)O; Piperidide = C1CCN(*)CC1; Me2NCH2CH2 = CN(C)CC*; NBuGly = CCCCNCC(=O)O; NPrGly = CCCNCC(=O)O; X3 = C[C@H](O)C*; Sar = CNCC(=O)O; tBu = CC(C)(C)*

experiment: in vitro; conditions: human, Caco-2, Caco-2

| SMILES | Papp [×10⁻⁶ cm/s] |
| --- | --- |
| CCCCN1CC(=O)N(C)[C@@H](Cc2ccccc2)C(=O)NC(CCC(=O)NS(C)(=O)=O)C(=O)N(C)[C@@H](CC(C)C)C(=O)N[C@@H](CC(C)C)C(=O)N(C)CC(=O)N(C)[C@@H](Cc2ccccc2)C(=O)N(C)[C@@H](CC(C)C)C(=O)N[C@@H](CC(C)C)C(=O)N(C)[C@@H](CC(C)C)C(=O)N[C@H](C(=O)N2CCCCC2)CC1=O (stereo partly drawn) [pd70] ([NBuGly][NMeF][ξGln(SO2Me)][NMeL]L[Sar][NMeF][NMeL]L[NMeL]D-Piperidide; lactam N-11) | 0.17 |
| CCCN1CC(=O)N(C)[C@@H](CC(C)C)C(=O)N[C@@H](COCCN(C)C)C(=O)N(C)[C@@H](Cc2ccccc2)C(=O)N(C)[C@@H](C(C)C)C(=O)N[C@H](C(=O)N2CCCCC2)CC(=O)N[C@H](C(C)C)C(=O)N(C)[C@@H](Cc2ccccc2)C(=O)N[C@@H](CC(C)C)C(=O)N(C)[C@@H](CC(C)C)C(=O)N[C@@H]([C@@H](C)O)C1=O [pd52] ([dV][NMeF]L[NMeL]T[NPrGly][NMeL]S(Me2NCH2CH2)[NMeF][NMeV]D-Piperidide; lactam N-11) | 0.12 |

same assay, conditions: human, Caco-2, Caco-2 (cm/sec)

| SMILES | Papp [×10⁻⁶ cm/s] |
| --- | --- |
| CC[C@H](C)[C@@H]1NC(=O)[C@H](CC(C)C)N(C)C(=O)CCCN(C)C(=O)C[C@@H](C(=O)N2CCCCC2)NC(=O)[C@H](CC(C)C)N(C)C(=O)[C@H](CC(C)C)N(C)C(=O)[C@H]([C@@H](C)O)NC(=O)[C@H](CC(C)C)N(C)C(=O)[C@H](COC[C@H](C)O)NC(=O)[C@H](Cc2cccc(Cl)c2)N(C)C(=O)[C@H](Cc2ccccc2)N(C)C1=O [AP64] ([NMeGABA][NMeL]I[NMeF][NMePhe(3-Cl)]S(X3)[NMeL]T[NMeL][NMeL]D-Piperidide; lactam N-11) | 0.35 |
| CC(C)C[C@@H]1NC(=O)[C@H](C)N(C)C(=O)C[C@@H](C(=O)N2CCCCC2)NC(=O)[C@H](CC(C)C)N(C)C(=O)CN(C)C(=O)[C@H](Cc2ccc(O)c(F)c2)NC(=O)[C@H](CC(C)C)N(C)C(=O)[C@H](C)N(C)C(=O)[C@H](C)NC(=O)[C@H](Cc2ccccc2)N(C)C(=O)[C@H](CC(C)C)N(C)C1=O [pd120] ([NMeA]L[NMeL][NMeF]A[NMeA][NMeL][Tyr(3-F)][Sar][NMeL]D-Piperidide; lactam N-11) | 0.23 |
| CC(C)C[C@H]1C(=O)N[C@@H]([C@@H](C)O)C(=O)N(C)CC(=O)N(C)[C@@H](Cc2cccc(Cl)c2)C(=O)N(C)[C@@H](CC(C)C)C(=O)N[C@@H](COC(C)(C)C)C(=O)N(C)[C@@H](CC(C)C)C(=O)N[C@H](C(=O)N2CCCCC2)CC(=O)N(C)CC(=O)N(C)[C@@H](CCc2ccccc2)C(=O)N[C@@H](COCCC(C)(C)O)C(=O)N1C [AP57] ([Sar][NMehPhe]S(Butyl(3-Me,3-OH))[NMeL]T[Sar][NMePhe(3-Cl)][NMeL]S(tBu)[NMeL]D-Piperidide; lactam N-11) | 0.83 |
| CCCCN1CC(=O)N(C)[C@@H](Cc2ccccc2)C(=O)N(C)[C@@H](CC(C)C)C(=O)N[C@@H](CC(C)C)C(=O)N(C)[C@@H](CC(C)C)C(=O)N[C@H](C(=O)N2CCCCC2)CC(=O)N(C)CC(=O)N(C)[C@@H](CC(C)C)C(=O)N[C@@H](Cc2ccc(O)c(OC)c2)C(=O)N(C)[C@@H](CC)C(=O)N[C@@H]([C@@H](C)O)C1=O [Compound E07] ([Sar][NMeL][Tyr(3-OMe)][NMeAbu]T[NBuGly][NMeF][NMeL]L[NMeL]D-Piperidide; lactam N-11) | 1.1 |
| CC[C@H]1C(=O)N[C@@H](CC(C)C)C(=O)N(C)[C@@H](CC(C)C)C(=O)N(C)C(Cc2ccccc2)C(=O)N[C@@H](CCc2ccc(C(=O)NC)c(OC)c2)C(=O)N(C)[C@@H](CC(C)C)C(=O)N(C)[C@@H](CC(C)C)C(=O)N[C@@H]([C@@H](C)O)C(=O)N(C)CC(=O)N(C)[C@@H](CC(C)C)C(=O)N[C@H](C(=O)N2CCCCC2)CC(=O)N1C (stereo partly drawn) [AP204] ([NMeAbu]L[NMeL][ξNMeF][hPhe(3-OMe,4-CONHMe)][NMeL][NMeL]T[Sar][NMeL]D-Piperidide; lactam N-11) | 1.6 |
| CC[C@H](C)[C@H]1C(=O)N[C@@H]([C@@H](C)O)C(=O)N(C)CC(=O)N(C)[C@@H](C)C(=O)N[C@H](C(=O)N2CCCCC2)CC(=O)N(C)[C@@H](C)C(=O)N[C@@H](C(C)C)C(=O)N(C)[C@@H](CC(C)C)C(=O)N(C)[C@@H](Cc2ccccc2)C(=O)NC(COc2cccc(Cl)c2)C(=O)N(C)[C@@H](Cc2ccccc2)C(=O)N1C (some centres unmarked) [pd186] | 1.8 |
| CC[C@H](C)[C@@H]1NC(=O)[C@H](CC(C)C)N(C)C(=O)[C@@H](CC(C)C)NC(=O)C[C@@H](C(=O)N2CCCCC2)NC(=O)[C@H](CC(C)C)N(C)C(=O)[C@H](Cc2ccccc2)N(C)C(=O)[C@H](COC(C)(C)C)NC(=O)CN(CCc2ccc(C(=O)NC)c(OC)c2)C(=O)CN(C)C(=O)[C@H]([C@@H](C)O)NC(=O)[C@H](CC(C)C)N(C)C1=O [AP221] ([dL][NMeL]I[NMeL]T[Sar][X11]S(tBu)[NMeF][NMeL]D-Piperidide; lactam N-11) | 0.28 |
| CC[C@H]1C(=O)N[C@@H](CCc2ccc(C(=O)NC)c(OC)c2)C(=O)N(C)[C@@H](CC(C)C)C(=O)N(C)[C@@H](CC(C)C)C(=O)N[C@@H](C(C)C)C(=O)N(C)[C@@H](Cc2ccccc2)C(=O)N(C)[C@@H](CC(C)C)C(=O)N[C@@H]([C@@H](C)O)C(=O)N(C)CC(=O)N(C)[C@@H](CC(C)C)C(=O)N[C@H](C(=O)N2CCCCC2)CC(=O)N1C [AP205] ([NMeAbu][hPhe(3-OMe,4-CONHMe)][NMeL][NMeL]V[NMeF][NMeL]T[Sar][NMeL]D-Piperidide; lactam N-11) | 0.79 |
| CCCCN1CC(=O)N(C)[C@@H](C(C)C)C(=O)N[C@@H](COC(C)(C)C)C(=O)N(C)[C@@H](Cc2ccccc2)C(=O)N(C)[C@@H](CC(C)C)C(=O)N[C@H](C(=O)N2CCCCC2)CC(=O)N[C@H](C(C)C)C(=O)N(C)[C@@H](Cc2ccccc2)C(=O)N[C@@H](COCC[C@@H](C)O)C(=O)N(C)[C@@H](CC(C)C)C(=O)N[C@@H]([C@@H](C)O)C1=O [AP108] ([dV][NMeF]S(Butyl(3R-OH))[NMeL]T[NBuGly][NMeV]S(tBu)[NMeF][NMeL]D-Piperidide; lactam N-11) | 0.81 |
| CC[C@H](C)[C@@H]1NC(=O)[C@H](CC(C)C)N(C)C(=O)CN(C)C(=O)C[C@@H](C(=O)N2CCCCC2)NC(=O)[C@H](C)N(C)C(=O)[C@H](COC(C)(C)C)NC(=O)[C@H](CC(C)C)N(C)C(=O)[C@H](CC(C)C)N(C)C(=O)CN(C)C(=O)[C@H](Cc2c[nH]c3ccccc23)NC(=O)[C@H](CC(C)C)N(C)C1=O [pd103] ([Sar][NMeL]I[NMeL]W[Sar][NMeL][NMeL]S(tBu)[NMeA]D-Piperidide; lactam N-11) | 0.093 |
| CCCCN1CC(=O)N(C)[C@@H](Cc2ccccc2)C(=O)N[C@@H]([C@@H](C)CC)C(=O)N(C)[C@@H](CC(C)C)C(=O)N[C@@H](C(C)O)C(=O)N(CCC)CC(=O)N(C)[C@@H](Cc2ccccc2)C(=O)N(C)[C@@H](CC(C)C)C(=O)N[C@@H](COCCO)CC(=O)N(C)[C@@H](CC(C)C)C(=O)N[C@H](C(=O)N2CCCCC2)CC1=O (stereo partly drawn) [AP26] ([NBuGly][NMeF]I[NMeL][Thr(3ξ)][NPrGly][NMeF][NMeL][X7][NMeL]D-Piperidide; lactam N-11) | 0.37 |

same assay, conditions: human, Caco-2, Caco-2 (membrane permeability)

| SMILES | Papp [×10⁻⁶ cm/s] |
| --- | --- |
| CCCCN1CC(=O)N(C)[C@@H](CC(C)C)C(=O)N[C@@H](COCC(O)C(F)(F)F)C(=O)N(C)[C@@H](Cc2ccccc2)C(=O)N(C)[C@@H](C(C)C)C(=O)N[C@H](C(=O)N2CCCCC2)CC(=O)N[C@H](C(C)C)C(=O)N(C)[C@@H](Cc2ccccc2)C(=O)N[C@@H](CC(C)C)C(=O)N(C)[C@@H](CC(C)C)C(=O)N[C@@H]([C@@H](C)O)C1=O (stereo partly drawn) [Compound C09] ([dV][NMeF]L[NMeL]T[NBuGly][NMeL]S(CH2CH(OH)CF3)[NMeF][NMeV]D-Piperidide; lactam N-11) | 0.12 |
